# The source made the active and inactive calls. No cut-off for these calls is given here.
# Columns and labels:
# Type in all cases: functional
# [1] = test system: MCF7; experiment: Growth inhibition of human MCF7 cells at 10 uM after 48 hrs by SRB assay relative to control; details: for inhibition of growth at 10 µM: MCF7, 48 h, read-out: GI
# [2] = test system: SR; experiment: Growth inhibition of human SR cells at 10 uM after 48 hrs by SRB assay relative to control; details: read-out: GI
# [3] = test system: SK-OV-3; experiment: Growth inhibition of human SKOV3 cells at 10 uM after 48 hrs by SRB assay relative to control; details: SK-OV-3, 48 h, read-out: GI
# [4] = test system: NCI-H23; experiment: Growth inhibition of human NCI-H23 cells at 10 uM after 48 hrs by SRB assay relative to control; details: NCI-H23, 48 h, read-out: GI
# [5] = test system: 786-0; experiment: Growth inhibition of human 786-0 cells at 10 uM after 48 hrs by SRB assay relative to control
# [6] = test system: LOX IMVI; experiment: Growth inhibition of human LOXIMVI cells at 10 uM after 48 hrs by SRB assay relative to control; details: read-out: GI
# [7] = test system: SF-268; experiment: Growth inhibition of human SF268 cells at 10 uM after 48 hrs by SRB assay relative to control; details: for inhibition of growth at 10 µM: SF-268, 48 h, read-out: GI
# [8] = test system: U-251; experiment: Growth inhibition of human U251 cells at 10 uM after 48 hrs by SRB assay relative to control; details: U-251, 48 h, read-out: GI
# [9] = test system: CCRF-CEM; experiment: Growth inhibition of human CCRF-CEM cells at 10 uM after 48 hrs by SRB assay relative to control; details: read-out: GI
# [10] = test system: A498; experiment: Growth inhibition of human A498 cells at 10 uM after 48 hrs by SRB assay relative to control; details: A498, 48 h, read-out: GI
# [11] = test system: HL-60; experiment: Growth inhibition of human HL60 cells at 10 uM after 48 hrs by SRB assay relative to control
# [12] = test system: Malme-3M; experiment: Growth inhibition of human MALME-3M cells at 10 uM after 48 hrs by SRB assay relative to control
# [13] = test system: SK-MEL-5; experiment: Growth inhibition of human SK-MEL-5 cells at 10 uM after 48 hrs by SRB assay relative to control; details: for inhibition of growth at 10 µM: SK-MEL-5, 48 h, read-out: GI
# [14] = test system: NCI-H522; experiment: Growth inhibition of human NCI-H522 cells at 10 uM after 48 hrs by SRB assay relative to control; details: NCI-H522, 48 h, read-out: GI
# [15] = test system: OVCAR-4; experiment: Growth inhibition of human OVCAR4 cells at 10 uM after 48 hrs by SRB assay relative to control
# [16] = test system: UACC-257; experiment: Growth inhibition of human UACC257 cells at 10 uM after 48 hrs by SRB assay relative to control
# [17] = test system: KM12; experiment: Growth inhibition of human KM12 cells at 10 uM after 48 hrs by SRB assay relative to control; details: KM12, 48 h, read-out: GI
# [18] = test system: HOP-92; experiment: Growth inhibition of human HOP92 cells at 10 uM after 48 hrs by SRB assay relative to control; details: HOP-92, 48 h, read-out: GI
# [19] = test system: NCI-H226; experiment: Growth inhibition of human NCI-H226 cells at 10 uM after 48 hrs by SRB assay relative to control
# [20] = test system: MOLT-4; experiment: Growth inhibition of human MOLT4 cells at 10 uM after 48 hrs by SRB assay relative to control; details: MOLT-4, 48 h, read-out: GI
# [21] = test system: SNB-75; experiment: Growth inhibition of human SNB75 cells at 10 uM after 48 hrs by SRB assay relative to control; details: SNB-75, 48 h, read-out: GI
# [22] = test system: HOP-62; experiment: Growth inhibition of human HOP62 cells at 10 uM after 48 hrs by SRB assay relative to control; details: HOP-62, 48 h, read-out: GI
# [23] = test system: HT-29; experiment: Growth inhibition of human HT-29 cells at 10 uM after 48 hrs by SRB assay relative to control
# [24] = test system: A549; experiment: Growth inhibition of human A549 cells at 10 uM after 48 hrs by SRB assay relative to control; details: A549, 48 h, read-out: GI
# [25] = test system: CAKI-1; experiment: Growth inhibition of human Caki1 cells at 10 uM after 48 hrs by SRB assay relative to control; details: CAKI-1, 48 h, read-out: GI
# [26] = test system: UO-31; experiment: Growth inhibition of human UO31 cells at 10 uM after 48 hrs by SRB assay relative to control; details: UO-31, 48 h, read-out: GI
# [27] = test system: UACC-62; experiment: Growth inhibition of human UACC62 cells at 10 uM after 48 hrs by SRB assay relative to control; details: for inhibition of growth at 10 µM: UACC-62, 48 h, read-out: GI
# [28] = test system: HCT-116; experiment: Growth inhibition of human HCT116 cells at 10 uM after 48 hrs by SRB assay relative to control
# [29] = test system: OVCAR-8; experiment: Growth inhibition of human OVCAR8 cells at 10 uM after 48 hrs by SRB assay relative to control
# [30] = test system: SK-MEL-2; experiment: Growth inhibition of human SK-MEL-2 cells at 10 uM after 48 hrs by SRB assay relative to control; details: SK-MEL-2, 48 h, read-out: GI
# [31] = test system: NCI/ADR-RES; experiment: Growth inhibition of human NCI/ADR-RES cells at 10 uM after 48 hrs by SRB assay relative to control; details: read-out: GI
# [32] = test system: RXF 393; experiment: Growth inhibition of human RXF393 cells at 10 uM after 48 hrs by SRB assay relative to control
# [33] = test system: SNB-19; experiment: Growth inhibition of human SNB19 cells at 10 uM after 48 hrs by SRB assay relative to control; details: for inhibition of growth at 10 µM: SNB-19, 48 h, read-out: GI
# [34] = test system: K562; experiment: Growth inhibition of human K562 cells at 10 uM after 48 hrs by SRB assay relative to control; details: K562, 48 h, read-out: GI
# [35] = test system: Hs-578T; experiment: Growth inhibition of human Hs 578T cells at 10 uM after 48 hrs by SRB assay relative to control
# [36] = test system: RPMI-8226; experiment: Growth inhibition of human RPMI8226 cells at 10 uM after 48 hrs by SRB assay relative to control; details: for inhibition of growth at 10 µM: RPMI-8226, 48 h, read-out: GI
# [37] = test system: MDA-MB-468; experiment: Growth inhibition of human MDA-MB-468 cells at 10 uM after 48 hrs by SRB assay relative to control; details: for inhibition of growth at 10 µM: MDA-MB-468, 48 h, read-out: GI
# [38] = test system: OVCAR-3; experiment: Growth inhibition of human OVCAR3 cells at 10 uM after 48 hrs by SRB assay relative to control
# [39] = test system: NCI-H322M; experiment: Growth inhibition of human NCI-H322M cells at 10 uM after 48 hrs by SRB assay relative to control
# [40] = test system: PC-3; experiment: Growth inhibition of human PC3 cells at 10 uM after 48 hrs by SRB assay relative to control; details: PC-3, 48 h, read-out: GI
SMILES,inhibition of growth at 10 µM [2],inhibition of growth at 10 µM [3],inhibition of growth at 10 µM [4],growth inhibition (GI) [5],inhibition of growth at 10 µM [6],inhibition of growth at 10 µM [8],inhibition of growth at 10 µM [9],inhibition of growth at 10 µM [10],growth inhibition (GI) [11],inhibition of growth at 10 µM [14],inhibition of growth at 10 µM [17],inhibition of growth at 10 µM [18],inhibition of growth at 10 µM [20],inhibition of growth at 10 µM [21],inhibition of growth at 10 µM [22],growth inhibition (GI) [23],inhibition of growth at 10 µM [24],inhibition of growth at 10 µM [25],inhibition of growth at 10 µM [26],inhibition of growth at 10 µM [30],further results
COc1ccc(Cc2nnc(SCC(=O)c3ccc(C)cc3)n2-c2ccccc2)cc1,7.61%,13.9%,7%,inactive,2%,4.09%,5.01%,26%,inactive,19%,4.22%,14.3%,9.02%,8.11%,6.7%,inactive,17.5%,7.83%,30.2%,23%,"inhibition of growth at 10 µM [1]: 14.6%; inhibition of growth at 10 µM [7]: 3.62%; inhibition of growth at 10 µM ([12]; read-out: GI): 5.45%; inhibition of growth at 10 µM [13]: 3.36%; inhibition of growth at 10 µM ([15]; OVCAR-4, 48 h, read-out: GI): 1.87%; inhibition of growth at 10 µM ([16]; UACC-257, 48 h, read-out: GI): 7.67%; inhibition of growth at 10 µM ([19]; NCI-H226, 48 h, read-out: GI): 2.21%; inhibition of growth at 10 µM [27]: 14%; growth inhibition (GI) [28]: inactive; inhibition of growth at 10 µM ([29]; OVCAR-8, 48 h, read-out: GI): 1.78%; inhibition of growth at 10 µM [31]: 16.6%; growth inhibition (GI) [32]: inactive; inhibition of growth at 10 µM [33]: 4.85%; inhibition of growth at 10 µM [34]: 7.62%; growth inhibition (GI) [35]: inactive; growth inhibition (GI) [36]: inactive; inhibition of growth at 10 µM [37]: 19.3%; inhibition of growth at 10 µM ([38]; OVCAR-3, 48 h, read-out: GI): 4.05%; inhibition of growth at 10 µM ([39]; read-out: GI): 8.17%; inhibition of growth at 10 µM [40]: 20.7%"
CCSc1nnc(Cc2ccc(OC)cc2)n1-c1ccc(C)cc1,8.17%,6.45%,4.3%,inactive,3.04%,1.35%,16.7%,6.56%,inactive,14.6%,6.34%,31.6%,17.7%,4%,6%,inactive,3.38%,4.82%,14.2%,1.9%,"growth inhibition (GI) [1]: inactive; growth inhibition (GI) [7]: inactive; growth inhibition (GI) [12]: inactive; inhibition of growth at 10 µM [13]: 2%; growth inhibition (GI) [15]: inactive; growth inhibition (GI) [16]: inactive; growth inhibition (GI) [19]: inactive; growth inhibition (GI) [27]: inactive; inhibition of growth at 10 µM ([28]; HCT-116, 48 h, read-out: GI): 4.52%; growth inhibition (GI) [29]: inactive; inhibition of growth at 10 µM [31]: 10.1%; growth inhibition (GI) [32]: inactive; growth inhibition (GI) [33]: inactive; inhibition of growth at 10 µM [34]: 20.2%; growth inhibition (GI) [35]: inactive; inhibition of growth at 10 µM [36]: 13.5%; inhibition of growth at 10 µM [37]: 2.5%; growth inhibition (GI) [38]: inactive; growth inhibition (GI) [39]: inactive; inhibition of growth at 10 µM [40]: 14.3%"
COc1ccc(Cc2nnc(SCC(=O)Nc3ccc(C)cc3)n2-c2ccc(C)cc2)cc1,12.8%,12%,2%,inactive,2.4%,2%,7.21%,46.2%,inactive,13.1%,8.1%,17.5%,39.5%,1.89%,1.2%,inactive,1.85%,1.24%,31.3%,6.19%,inhibition of growth at 10 µM [1]: 3%; inhibition of growth at 10 µM [7]: 4.43%; growth inhibition (GI) [12]: inactive; growth inhibition (GI) [13]: inactive; growth inhibition (GI) [15]: inactive; growth inhibition (GI) [16]: inactive; growth inhibition (GI) [19]: inactive; inhibition of growth at 10 µM [27]: 4.65%; growth inhibition (GI) [28]: inactive; growth inhibition (GI) [29]: inactive; inhibition of growth at 10 µM [31]: 5.55%; growth inhibition (GI) [32]: inactive; inhibition of growth at 10 µM [33]: 3.42%; inhibition of growth at 10 µM [34]: 26.4%; growth inhibition (GI) [35]: inactive; inhibition of growth at 10 µM [36]: 10%; growth inhibition (GI) [37]: inactive; growth inhibition (GI) [38]: inactive; growth inhibition (GI) [39]: inactive; inhibition of growth at 10 µM [40]: 32.4%
